We go through 22 compounds from PubChem BioAssay AID256 (DTP/NCI, 2004).

Values joined by “and” are separate entries in the source; they are usually repeats but may differ in a detail not shown here. Identical values can stand only once. Toxic doses and inconclusive results are not listed. Residues, ends and D or L forms follow the SMILES beside them. *: point of attachment. Trt = c1ccc(C(c2ccccc2)(c2ccccc2)*)cc1; Cbz = O=C(OCc1ccccc1)*

The experiment concerns CD2F1 mice, L1210 leukemia ip, survival T/C. In words: NCI In Vivo Anticancer Drug Screen. Data for tumor model L1210 Leukemia (intraperitoneal) in CD2F1 (CDF1) mice. The following applies: higher = longer survival. The method in brief:
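Each value reflects a quotient of treated over vehicle control outcomes in mice with a transplanted tumor.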

[1] abbreviates: endpoint: mean survival time, dose: 50.0 mg/kg/injection, schedule: Q01DX009 (ip), vehicle: saline with Tween-80.
Setting [2] is: endpoint: mean survival time, dose: 100.0 mg/kg/injection, schedule: Q01DX009 (ip), vehicle: saline with Tween-80.
The mark [3] stands for this setting: endpoint: mean survival time, dose: 200.0 mg/kg/injection, schedule: Q01DX009 (ip), vehicle: saline with Tween-80.
The mark [4] stands for this setting: endpoint: mean survival time, dose: 100.0 mg/kg/injection, schedule: Q04DX003 (ip), vehicle: saline with Tween-80.
[5] abbreviates: endpoint: mean survival time, dose: 400.0 mg/kg/injection, schedule: Q04DX003 (ip), vehicle: saline with Tween-80.
Where [6] appears, read: endpoint: mean survival time, dose: 100.0 mg/kg/injection, schedule: Q01DX009 (ip), vehicle: saline.
[7] abbreviates: endpoint: mean survival time, dose: 200.0 mg/kg/injection, schedule: Q01DX009 (ip), vehicle: saline.
Where [8] appears, read: endpoint: mean survival time, dose: 400.0 mg/kg/injection, schedule: Q01DX009 (ip), vehicle: saline.

Turning to `CCCCCC#CC1OC12CCCCC2` (stereo not drawn), the T/C runs as follows: (endpoint: mean survival time, dose: 12.5 mg/kg/injection, schedule: Q01DX009 (sc), vehicle: saline with Tween-80) 97 % of control; (endpoint: mean survival time, dose: 25.0 mg/kg/injection, schedule: Q01DX009 (sc), vehicle: saline with Tween-80) 104 % of control; (endpoint: mean survival time, dose: 50.0 mg/kg/injection, schedule: Q01DX009 (sc), vehicle: saline with Tween-80) 98 % of control; (endpoint: mean survival time, dose: 100.0 mg/kg/injection, schedule: Q01DX009 (sc), vehicle: saline with Tween-80) 103 % of control; (endpoint: mean survival time, dose: 200.0 mg/kg/injection, schedule: Q01DX009 (sc), vehicle: saline with Tween-80) 98 % of control.
Regarding `Cc1ccc(NC(=O)Nc2cccc(C(=O)O)c2)cc1[N+](=O)[O-]`, the T/C under setting [1] was 94 % of control, the T/C under setting [2] was 98 % of control and the T/C under setting [3] was 98 % of control.
Consider `CC(=O)OCC1OC(n2ccc(=O)[nH]c2=O)CC1N=[N+]=[N-]` (stereo not drawn), for which the T/C is, setting by setting: (endpoint: median survival time, dose: 12.5 mg/kg/injection, schedule: Q01DX005 (ip), vehicle: saline with Tween-80) 104 % of control; (endpoint: median survival time, dose: 25.0 mg/kg/injection, schedule: Q01DX005 (ip), vehicle: saline with Tween-80) 107 % of control; (endpoint: median survival time, dose: 50.0 mg/kg/injection, schedule: Q01DX005 (ip), vehicle: saline with Tween-80) 104 % of control; (endpoint: median survival time, dose: 100.0 mg/kg/injection, schedule: Q01DX005 (ip), vehicle: saline with Tween-80) 101 % of control; (endpoint: median survival time, dose: 200.0 mg/kg/injection, schedule: Q01DX005 (ip), vehicle: saline with Tween-80) 106 % of control.
Take `COC(=O)CCC(=O)c1ccc(OC)cc1`: the T/C was 92 % of control (endpoint: mean survival time, dose: 100.0 mg/kg/injection, schedule: Q01DX001 (ip), vehicle: alcohol); 92 % of control (endpoint: mean survival time, dose: 200.0 mg/kg/injection, schedule: Q01DX001 (ip), vehicle: alcohol); 101 % of control (endpoint: mean survival time, dose: 400.0 mg/kg/injection, schedule: Q01DX001 (ip), vehicle: alcohol).
As to `COc1cccc(N=Nc2c(N)nc(N)nc2N)c1`, the T/C under setting [1] was 97 % of control.
Consider `Nc1nc(N)c(N=Nc2ccc(SCC(=O)O)cc2)c(N)n1`, for which the T/C reads like this: under setting [4], 102 % of control; (endpoint: mean survival time, dose: 200.0 mg/kg/injection, schedule: Q04DX003 (ip), vehicle: saline with Tween-80) 104 % of control; under setting [5], 95 % of control.
For `CC(C)=N/N=C(N)/C(N)=N/N=C(C)C`, the T/C was 103 % of control (endpoint: mean survival time, dose: 100.0 mg/kg/injection, schedule: Q04DX002 (ip), vehicle: saline with Tween-80); 106 % of control (endpoint: mean survival time, dose: 200.0 mg/kg/injection, schedule: Q04DX002 (ip), vehicle: saline with Tween-80); 95 % of control (endpoint: mean survival time, dose: 400.0 mg/kg/injection, schedule: Q04DX002 (ip), vehicle: saline with Tween-80).
On to `O=C(CN1CCOCC1)Nc1nc(-c2ccc(Cl)cc2)cs1`, for which the T/C is 102 % of control (endpoint: median survival time, dose: 12.5 mg/kg/injection, schedule: Q01DX009 (ip), vehicle: saline with Tween-80); 98 % of control (endpoint: median survival time, dose: 25.0 mg/kg/injection, schedule: Q01DX009 (ip), vehicle: saline with Tween-80); 98 % of control (endpoint: median survival time, dose: 50.0 mg/kg/injection, schedule: Q01DX009 (ip), vehicle: saline with Tween-80); 105 % of control (endpoint: median survival time, dose: 100.0 mg/kg/injection, schedule: Q01DX009 (ip), vehicle: saline with Tween-80); 93 % of control (endpoint: median survival time, dose: 200.0 mg/kg/injection, schedule: Q01DX009 (ip), vehicle: saline with Tween-80).
For `COC(=O)C(CSC(c1ccccc1)(c1ccccc1)c1ccccc1)NC(=O)C(CC(N)=O)NC(=O)OCc1ccccc1` (stereo not drawn) (Cbz-Asn-Cys(Trt)-OMe; configuration not given here), the T/C is, setting by setting: (endpoint: median survival time, dose: 12.5 mg/kg/injection, schedule: Q01DX009 (ip), vehicle: distilled water + Tween-80) 101 % of control; (endpoint: median survival time, dose: 25.0 mg/kg/injection, schedule: Q01DX009 (ip), vehicle: distilled water + Tween-80) 108 % of control; (endpoint: median survival time, dose: 50.0 mg/kg/injection, schedule: Q01DX009 (ip), vehicle: distilled water + Tween-80) 113 % of control and 107 % of control; (endpoint: median survival time, dose: 100.0 mg/kg/injection, schedule: Q01DX009 (ip), vehicle: distilled water + Tween-80) 114 % of control; (endpoint: median survival time, dose: 200.0 mg/kg/injection, schedule: Q01DX009 (ip), vehicle: distilled water + Tween-80) 162 % of control.
As for `C=CCNC1CCS(=O)(=O)C1` (stereo not drawn), the T/C is 104 % of control (endpoint: mean survival time, dose: 50.0 mg/kg/injection, schedule: Q01DX009 (ip), vehicle: saline); 97 % of control under setting [6]; 104 % of control under setting [7].
On to `C[CH2][Sn]([F])([CH2]C)[CH2]C`, for which the T/C was 98 % of control (endpoint: mean survival time, dose: 0.37 mg/kg/injection, schedule: Q01DX009 (ip), vehicle: saline with Tween-80); 101 % of control (endpoint: mean survival time, dose: 0.75 mg/kg/injection, schedule: Q01DX009 (ip), vehicle: saline with Tween-80); 104 % of control (endpoint: mean survival time, dose: 1.5 mg/kg/injection, schedule: Q01DX009 (ip), vehicle: saline with Tween-80); 102 % of control (endpoint: mean survival time, dose: 3.0 mg/kg/injection, schedule: Q01DX009 (ip), vehicle: saline with Tween-80); 98 % of control (endpoint: mean survival time, dose: 6.0 mg/kg/injection, schedule: Q01DX009 (ip), vehicle: saline with Tween-80).
Turning to `CN(C)CC1CCCCCC(CN(C)C)C1=O` (stereo not drawn), the T/C runs as follows: (endpoint: mean survival time, dose: 75.0 mg/kg/injection, schedule: Q01DX001 (ip), vehicle: other) 102 % of control; (endpoint: mean survival time, dose: 150.0 mg/kg/injection, schedule: Q01DX001 (ip), vehicle: other) 106 % of control.
Regarding `N=C(c1ccccc1)c1ccccc1`, the T/C was 100 % of control under setting [2]; 102 % of control under setting [3]; 102 % of control (endpoint: mean survival time, dose: 400.0 mg/kg/injection, schedule: Q01DX009 (ip), vehicle: saline with Tween-80).
Consider `O=C(OC/C=C/CCl)c1ccc([N+](=O)[O-])cc1`, for which the T/C is, setting by setting: (endpoint: mean survival time, dose: 25.0 mg/kg/injection, schedule: Q01DX009 (ip), vehicle: saline with Tween-80) 95 % of control; under setting [1], 94 % of control; under setting [2], 91 % of control and 94 % of control.
As to `CC1CCOC(C(C)C)O1` (stereo not drawn), the T/C is 96 % of control (endpoint: mean survival time, dose: 50.0 mg/kg/injection, schedule: Q04DX002 (ip), vehicle: saline); 96 % of control (endpoint: mean survival time, dose: 100.0 mg/kg/injection, schedule: Q04DX002 (ip), vehicle: saline); 92 % of control (endpoint: mean survival time, dose: 200.0 mg/kg/injection, schedule: Q04DX002 (ip), vehicle: saline).
As to `[Br][Pt].[NH-]CC[N-]CC[NH-]`, the T/C was 98 % of control (endpoint: mean survival time, dose: 12.5 mg/kg/injection, schedule: Q01DX009 (ip), vehicle: water) and 93 % of control (endpoint: mean survival time, dose: 25.0 mg/kg/injection, schedule: Q01DX009 (ip), vehicle: water).
On to `CCCCCCCCCCOCCCCCCCCCC`, for which the T/C under setting [6] was 95 % of control; the T/C (endpoint: mean survival time, dose: 100.0 mg/kg/injection, schedule: Q04DX003 (ip), vehicle: saline) is 94 % of control; the T/C under setting [7] is 98 % of control; the T/C (endpoint: mean survival time, dose: 200.0 mg/kg/injection, schedule: Q04DX003 (ip), vehicle: saline) was 101 % of control; the T/C under setting [8] is 97 % of control; the T/C (endpoint: mean survival time, dose: 400.0 mg/kg/injection, schedule: Q04DX003 (ip), vehicle: saline) was 94 % of control.
For the compound `C/C=C1\CN2CCC34c5ccccc5N5C(=O)CCC(C1CC23)C54` (stereo not drawn), the T/C is, setting by setting: (endpoint: mean survival time, dose: 5.0 mg/kg/injection, schedule: Q01DX001 (ip), vehicle: saline) 98 % of control; (endpoint: mean survival time, dose: 10.0 mg/kg/injection, schedule: Q01DX001 (ip), vehicle: saline) 98 % of control; (endpoint: mean survival time, dose: 20.0 mg/kg/injection, schedule: Q01DX001 (ip), vehicle: saline) 98 % of control; (endpoint: mean survival time, dose: 40.0 mg/kg/injection, schedule: Q01DX001 (ip), vehicle: saline) 100 % of control.
For the compound `Cc1ccc(OCc2c(COc3ccc(Cl)cc3)sc3ccc(Cl)cc23)cc1`, the T/C runs as follows: under setting [4], 96 % of control; under setting [5], 88 % of control.
As to `ClC1C2c3ccccc3C(C1Cl)[n+]1ccccc12` (stereo not drawn), the T/C is 93 % of control (endpoint: mean survival time, dose: 12.5 mg/kg/injection, schedule: Q04DX003 (ip), vehicle: Klucel (hydroxypropylcellulose) (HPC)) and 98 % of control (endpoint: mean survival time, dose: 25.0 mg/kg/injection, schedule: Q04DX003 (ip), vehicle: Klucel (hydroxypropylcellulose) (HPC)).
`O=[N+]([O-])c1cccnc1Oc1cccc(C(F)(F)F)c1`: the T/C reads like this: under setting [6], 95 % of control; under setting [7], 96 % of control; under setting [8], 91 % of control.
Turning to `CCC(C(=O)O)c1ccccc1` (stereo not drawn), the T/C was 97 % of control (endpoint: mean survival time, dose: 100.0 mg/kg/injection, schedule: Q04DX003 (ip), vehicle: saline sonified) and 101 % of control (endpoint: mean survival time, dose: 200.0 mg/kg/injection, schedule: Q04DX003 (ip), vehicle: saline sonified).
